Test results: the supplement of paper PMC10307832

What was measured:
Test in all cases: relative viability (nuclei count vs DMSO), 5 days (fraction); higher = more cells survive
VE-821 + Trametinib = compound: CS(=O)(=O)c1ccc(-c2cnc(N)c(C(=O)Nc3ccccc3)n2)cc1 [VE-821] + CC(=O)Nc1cccc(-n2c(=O)n(C3CC3)c(=O)c3c(Nc4ccc(I)cc4F)n(C)c(=O)c(C)c32)c1 [Trametinib] (partner 0.02 µM)
Summary of the method: (§1)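 Each reported value is a median over duplicate plates. It expresses relative viability: treated-well nuclei count divided by vehicle-well nuclei count. Lung cancer cell lines in 1536-well plates were dosed by pin tool a day after seeding, alone with one drug or with a fixed anchor-drug dose plus five library-drug doses (not always all listed) in √10 steps, and nuclei were counted after 5 days.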

Vismodegib + Phenformin = compound: CS(=O)(=O)c1ccc(C(=O)Nc2ccc(Cl)c(-c3ccccn3)c2)c(Cl)c1 [Vismodegib] + N=C(N)NC(=N)NCCc1ccccc1 [Phenformin] (partner 250 µM)
Summary of the method: as §1

[1] = compound: N#CC[C@H](C1CCCC1)n1cc(-c2ncnc3[nH]ccc23)cn1 [Ruxolitinib] + CC(=O)c1c(C)c2cnc(Nc3ccc(N4CCNCC4)cn3)nc2n(C2CCCC2)c1=O [Palbociclib] (partner 0.5 µM)
Summary of the method: as §1

Ruxolitinib + Dasatinib = compound: N#CC[C@H](C1CCCC1)n1cc(-c2ncnc3[nH]ccc23)cn1 [Ruxolitinib] + Cc1nc(Nc2ncc(C(=O)Nc3c(C)cccc3Cl)s2)cc(N2CCN(CCO)CC2)n1 [Dasatinib] (partner 0.075 µM)
Summary of the method: as §1

Q: Which results are given for UMC-11?
A: relative viability (VE-821 + Trametinib; first compound 0.08 µM): 0.738; relative viability (VE-821 + Trametinib; first compound 0.253 µM): 0.596; relative viability (VE-821 + Trametinib; first compound 0.8 µM): 0.516; relative viability (VE-821 + Trametinib; first compound 2.53 µM): 0.798; relative viability (VE-821 + Trametinib; first compound 8 µM): 0.38; relative viability (Vismodegib + Phenformin; first compound 0.08 µM): 0.286; relative viability (Vismodegib + Phenformin; first compound 0.253 µM): 0.311; relative viability (Vismodegib + Phenformin; first compound 0.8 µM): 0.301; relative viability (Vismodegib + Phenformin; first compound 2.53 µM): 0.283; relative viability (Vismodegib + Phenformin; first compound 8 µM): 0.284; relative viability ([1]; first compound 0.08 µM): 0.345; relative viability ([1]; first compound 0.253 µM): 0.399; relative viability ([1]; first compound 0.8 µM): 0.329; relative viability ([1]; first compound 2.53 µM): 0.366; relative viability ([1]; first compound 8 µM): 0.362; relative viability (Ruxolitinib + Dasatinib; first compound 0.08 µM): 0.437; relative viability (Ruxolitinib + Dasatinib; first compound 0.253 µM): 0.492; relative viability (Ruxolitinib + Dasatinib; first compound 0.8 µM): 0.524; relative viability (Ruxolitinib + Dasatinib; first compound 2.53 µM): 0.508; relative viability (Ruxolitinib + Dasatinib; first compound 8 µM): 0.512
